Measured values taken from patent US20080045547A1, “Salts And Co-Crystals of Pyrazolopyrimidine Compounds, Compositions Thereof And Methods For Their Production And Use” (priority 2006, published 2008).
Where “and” joins values, the source holds several entries; their conditions need not be identical. Equal values may be shown once. Entries after “also recorded” stand apart in the source; their conditions may differ. Where a name gives a salt, the structure may show the parent alone.

Key:
[1] = Equilibrium aqueous solubility from solid; type: physicochemical; details: H20, room temperature overnight; for solubility: water, thermodynamic from solid
Description: Samples of the ocinaplon salts shown above were evaluated for equilibrium aqueous solubility from solid. Duplicate samples of ocinaplon were accurately weighed and diluted to 1 ml with water to 6.83 mg/ml and 6.43 mg/ml. Duplicate samples of Ocinaplon di HCl salt were accurately weighed and diluted to 1 ml with water to 5.5 mg/ml and 6.0 mg/ml. Ocinaplon di HBr salt was accurately weighed and diluted to 1 ml with water to 6.1 mg/ml and 5.8 mg/ml. Ocinaplon disulfate salt was accurately weighed and diluted to 1 ml with water to 7.5 mg/ml and 6.5 mg/ml. Any change in pH of the water following sample addition was recorded. After equilibration at room temperature overnight the solutions were filtered and solute concentration determined by fast gradient HPLC with UV/VIS/MS detection with reference to 5, 10, 50, 100 and 250 μM analytical standards. Prior to sample filtration, filters were primed with 600 μl of sample to resolve potential adsorption problems. Both sample replicates were collected through the primed filter. Duplicate determinations were made in all cases.

[2] = Pharmacokinetics of different salt forms of ocinaplon after a single oral dose; type: in vivo; details: male beagle dogs; for Tmax / half-life / AUC(0-t) / AUC(0-inf) / Cmax: dog, plasma, single oral dose 30 mg Base/kg, 0.5% methylcellulose suspension, mean (CV %), N = 5; for AUC of ocinaplon relative to an equivalent amount of the free base / Cmax of ocinaplon relative to an equivalent amount of the free base / variability in plasma levels of ocinaplon compared to the free base / variability in the AUC (CV %) compared to the free base: oral 30 mg free base/kg; for AUC(0-t) / AUC(0-inf) / Cmax: male, beagle, po
Description: The test compounds were prepared in 0.5% methylcellulose. The target concentrations of the free base and HBr salt were 1.0 and 1.34 mg/mL (equivalent to 1 mg of the free base), respectively. The liquid suspensions were administered via oral gavage. Prior to removing the gavage tube, the tube was flushed with approximately 5 mL of water.
Blood (approximately 2 mL) was collected from a jugular vein via syringe and needle and transferred into tubes containing K2EDTA anticoagulant predose and at 0.5, 1, 2, 3, 4, 6, 8, 12, and 24 hours postdose. Blood was maintained on wet ice, in chilled Kryoracks, or at approximately 5° C. prior to centrifugation to obtain plasma. Centrifugation began within 1 hour of collection. Plasma was placed on dry ice prior to storage at approximately −70° C. Plasma samples, remaining test compounds, and remaining dose formulations were shipped on dry ice to the analysis site and stored at approximately −70° C. before and after analysis. Samples were analyzed using an LC/MS/MS method. Plasma concentration-time data for each dog and formulation were analyzed using a noncompartmental model assumption with WinNonlin, version 4.1 (Pharsight Corporation, Mountain View, Calif.). All calculations were based on the nominal times as actual sample collection times departed minimally from the schedule times.
The pharmacokinetic parameters of different pyrazolopyrimidine acid salts vary in an apparently salt and compound dependent fashion. This is illustrated by a comparison of the pharmacokinetic properties of different acid salts of the pyrazolopyrimidine, ocinaplon. This study was performed in a manner similar to the study described in Example 9 hereinabove. The concentrations of the HCl, HBr and disulfate salts of ocinaplon were 3.72 mg/mL, 4.61 mg/mL and 4.95 mg/mL, respectively. All concentrations were calculated to be 3.0 mg free base/mL; the dose volume was […]. […] […] These findings exemplify and underscore the differences in pharmacokinetic profiles among these three exemplary salts of ocinaplon.

| Compound | solubility [1] | Tmax ([2]; 30 mg/kg) | half-life ([2]; 30 mg/kg) | AUC of ocinaplon relative to an equivalent amount of the free base [2] | Cmax of ocinaplon relative to an equivalent amount of the free base [2] | variability in plasma levels of ocinaplon compared to the free base [2] | variability in the AUC (CV %) compared to the free base [2] | AUC(0-t) ([2]; 30 mg Base/kg) | AUC(0-inf) ([2]; 30 mg/kg) | Cmax ([2]; 30 mg/kg) | AUC(0-t) ([2]; 30 mg/kg) | Equilibrium Aqueous Solubility from Solid [1] |
| --- | --- | --- | --- | --- | --- | --- | --- | --- | --- | --- | --- | --- |
| Br.Br.O=C(c1ccccn1)c1cnn2c(-c3ccncc3)ccnc12 [Ocinaplon di HBr] | 11500 µM and 5300 µg/mL | 54 min | 49.8 min | did not differ | more than two-fold; also recorded: approximately twice | lower variability | dramatically less | 38000 ng·h/mL | 38100 ng·h/mL | 13600 ng/mL | – | – |
| Cl.Cl.O=C(c1ccccn1)c1cnn2c(-c3ccncc3)ccnc12 [Ocinaplon di HCl salt] | 12600 µM and 4700 µg/mL | 66 min | 63 min | almost twice as high | more than two-fold | lower variability | much less variability | – | 57300 ng·h/mL | 15000 ng/mL | 57100 ng·h/mL | – |
| O=C(c1ccccn1)c1cnn2c(-c3ccncc3)ccnc12 [Ocinaplon disulfate salt] | – | 48 min | 57 min | – | more than two-fold | – | – | – | 46400 ng·h/mL | 14800 ng/mL | 46300 ng·h/mL | 10.6 mM and 5.3 mg/ml |
